Results published in PubChem BioAssay AID1919016 (Molecular Pharmacology Branch, DTP, NCI, 2023).

Tested on: NCI-H196 complex spheroid growth, percent test/control
Experiment: Anticancer human tumor NCI-H196 cell line growth inhibition [AhR];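 also: seven days of drug exposure starting three days after plating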;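 as to viability, T/C: 100% = DMSO vehicle control wells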
Conditions: for IC50: curve of first compound; for viability, T/C: stronger effect = lower value
Procedure, shortened: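 Agents were dosed in half-log steps down from roughly clinical Cmax, or from 10 microM where Cmax was unknown, alone and with AhR antagonists. Read-out: percent test/control growth of tumor spheroids containing HUVEC and MSC stromal cells.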

[1] = second compound 0.1 µM, first compound 0.0316 µM
[2] = second compound 0.1 µM, first compound 0.1 µM
[3] = second compound 0.1 µM, first compound 0.316 µM
[4] = second compound 0.1 µM, first compound 1 µM
[5] = second compound 0.316 µM, first compound 0.0316 µM
[6] = second compound 0.316 µM, first compound 0.1 µM
[7] = second compound 0.316 µM, first compound 0.316 µM
[8] = second compound 0.316 µM, first compound 1 µM
[9] = second compound 1 µM, first compound 0.0316 µM
[10] = second compound 1 µM, first compound 0.1 µM
[11] = second compound 1 µM, first compound 0.316 µM
[12] = second compound 1 µM, first compound 1 µM
[13] = second compound 3.16 µM, first compound 0.0316 µM
[14] = second compound 3.16 µM, first compound 0.1 µM
[15] = second compound 3.16 µM, first compound 0.316 µM
[16] = second compound 3.16 µM, first compound 1 µM
[17] = second compound 10 µM, first compound 0.0316 µM
[18] = second compound 10 µM, first compound 0.1 µM
[19] = second compound 10 µM, first compound 0.316 µM
[20] = second compound 10 µM, first compound 1 µM

| IC50 (second compound 0.1 µM) | IC50 (second compound 0.316 µM) | IC50 (second compound 1 µM) | IC50 (second compound 3.16 µM) | IC50 (second compound 10 µM) | SMILES | viability, T/C [1] | viability, T/C [2] | viability, T/C [3] | viability, T/C [4] | viability, T/C [5] | viability, T/C [6] | viability, T/C [7] | viability, T/C [8] | viability, T/C [9] | viability, T/C [10] | viability, T/C [11] | viability, T/C [12] | viability, T/C [13] | viability, T/C [14] | viability, T/C [15] | other results |
| --- | --- | --- | --- | --- | --- | --- | --- | --- | --- | --- | --- | --- | --- | --- | --- | --- | --- | --- | --- | --- | --- |
| > 10 µM | > 10 µM | > 10 µM | > 10 µM | > 10 µM | CC1COCCN1c1cc(C2(S(C)(=N)=O)CC2)nc(-c2ccnc3[nH]ccc23)n1 (stereo not given) + Cc1cncc(-c2nc(NCCc3c[nH]c4ccccc34)c3ncn(C(C)C)c3n2)c1 | 104% | 103% | 91% | 90.1% | 100% | 101% | 101% | 90.3% | 98.5% | 96% | 99.8% | 96.9% | 108% | 103% | 104% | viability, T/C (second compound 0.1 µM, first compound 3.16 µM): 88.9%; viability, T/C (second compound 0.1 µM, first compound 10 µM): 74.5%; viability, T/C (second compound 0.316 µM, first compound 3.16 µM): 85.3%; viability, T/C (second compound 0.316 µM, first compound 10 µM): 64.5%; viability, T/C (second compound 1 µM, first compound 3.16 µM): 86.9%; viability, T/C (second compound 1 µM, first compound 10 µM): 73.1%; viability, T/C [16]: 96%; viability, T/C (second compound 3.16 µM, first compound 3.16 µM): 98.8%; viability, T/C (second compound 3.16 µM, first compound 10 µM): 71.9%; viability, T/C [17]: 77.3%; viability, T/C [18]: 96.6%; viability, T/C [19]: 87.6%; viability, T/C [20]: 83.7%; viability, T/C (second compound 10 µM, first compound 3.16 µM): 79.3%; viability, T/C (second compound 10 µM, first compound 10 µM): 76.4% |
| > 1 µM | > 1 µM | > 1 µM | > 1 µM | > 1 µM | Nc1ncn(C2CC(O)C(CO)O2)c(=O)n1 (stereo not given) + CC(CO)NC(=O)c1cc(-c2ccc(Cl)cc2)nn(-c2cnn(C)c2)c1=O | 105% | 106% | 120% | 126% | 114% | 107% | 114% | 120% | 128% | 108% | 110% | 115% | 120% | 104% | 121% | viability, T/C (second compound 0.1 µM, first compound 0.00316 µM): 112%; viability, T/C (second compound 0.1 µM, first compound 0.01 µM): 117%; viability, T/C (second compound 0.316 µM, first compound 0.00316 µM): 107%; viability, T/C (second compound 0.316 µM, first compound 0.01 µM): 116%; viability, T/C (second compound 1 µM, first compound 0.00316 µM): 120%; viability, T/C (second compound 1 µM, first compound 0.01 µM): 118%; viability, T/C (second compound 3.16 µM, first compound 0.00316 µM): 126%; viability, T/C (second compound 3.16 µM, first compound 0.01 µM): 130%; viability, T/C [16]: 115%; viability, T/C (second compound 10 µM, first compound 0.00316 µM): 141%; viability, T/C (second compound 10 µM, first compound 0.01 µM): 119%; viability, T/C [17]: 137%; viability, T/C [18]: 114%; viability, T/C [19]: 133%; viability, T/C [20]: 116% |
